{"source": "patent US20030162721A1", "about": "“PHARMACEUTICAL COMPOSITION CONTAINING PEPTICHEMIO” (priority 1997, published 2003)", "origin": "cited, not measured here", "tested_on": "RPMI 8322 melanoma cells", "data": [{"substance": "L-prolyl-m-sarcolysyl-L-p-fluorophenylalanine [PSF]", "values": [{"measurement": "times more toxic than m-sarcolysine", "setting": "relative to m-sarcolysine", "result": 28, "unit": "times"}, {"measurement": "times more toxic than melphalan", "setting": "relative to melphalan", "result": 35, "unit": "times"}]}]}
